Test results published in publication PMC11079024, “Identification of a family of species-selective complex I inhibitors as potential anthelmintics” (Nature Communications, 2024).
pIC50: −log10 of the molar value. Read-outs that look alike come from different tables or passages of the source.

Columns and labels:
[1] = molecular target: C. elegans (N2) complex I (NADH:ubiquinone oxidoreductase) (Caenorhabditis elegans, UniProt P24887+Q93873+Q94360); experiment: biochemical; type: biochemical; conditions: for activity at 0.0001 µM / activity at 0.0005 µM / activity at 0.001 µM / activity at 0.0025 µM / activity at 0.005 µM / activity at 0.013 µM / activity at 0.025 µM / activity at 0.063 µM / activity at 0.125 µM / activity at 0.313 µM / activity at 0.625 µM / activity at 1.5 µM / activity at 3 µM / activity at 15 µM / activity at 37.5 µM / activity at 75 µM: read-out: C. elegans mitochondrial complex I activity; for Log IC50 C. elegans complex I: log10 of IC50 in µM, C. elegans mitochondria
In short: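 Mitochondria from liquid-cultured adults were freeze-thawed thrice before the 15-min DCIP-coupled NADH oxidation read.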

L1 wild-type C. elegans [2] = system: L1 wild-type C. elegans
L1 wild-type C. elegans [3] = experiment: microbe, parasite or virus in culture; conditions: Caenorhabditis elegans, read-out: C. elegans KCN Survival Assay LC50, estimated from fitted dose-response curves; mean of at least two biological replicates
[4] = in vitro complex I dose response on C. elegans mitochondria, average of at least two biological replicates, fit in R (DRC), read-out: IC50 C. elegans complex I
[5] = wild-type (N2) mitochondria, read-out: C. elegans Complex I IC50
[6] = wild-type C. elegans mitochondria, estimated from fitted dose-response curves, read-out: C. elegans Complex I IC50
[7] = 50 μM, […], KCN survival assay, hit = relative motility below 0.25
[8] = Dose 0.2 µM, mean of at least three biological replicates
[9] = wild-type C. elegans mitochondria, read-out: C. elegans Complex I IC50
[10] = 50 μM, […], hit = relative motility below 0.25 3 hours after removal of KCN
[11] = 50 μM compound, […], hit = relative motility below 0.25 3 hours after removal of KCN

C. elegans (N2) complex I (NADH:ubiquinone oxidoreductase), sequence (Q94360 17-199): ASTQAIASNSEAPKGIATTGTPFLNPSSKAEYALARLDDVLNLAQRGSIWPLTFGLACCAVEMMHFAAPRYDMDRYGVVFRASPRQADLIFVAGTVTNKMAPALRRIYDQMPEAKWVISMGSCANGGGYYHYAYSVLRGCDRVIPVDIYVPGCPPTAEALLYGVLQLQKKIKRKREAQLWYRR
C. elegans (N2) complex I (NADH:ubiquinone oxidoreductase), sequence (P24887 whole entry): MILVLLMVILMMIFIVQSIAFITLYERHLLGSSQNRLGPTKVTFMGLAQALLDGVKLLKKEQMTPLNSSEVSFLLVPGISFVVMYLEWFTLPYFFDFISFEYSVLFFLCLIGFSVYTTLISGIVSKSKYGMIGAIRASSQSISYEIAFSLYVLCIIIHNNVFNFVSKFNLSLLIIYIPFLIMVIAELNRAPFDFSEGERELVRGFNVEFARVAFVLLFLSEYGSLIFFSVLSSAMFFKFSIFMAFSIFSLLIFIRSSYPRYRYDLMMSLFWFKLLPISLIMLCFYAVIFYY
C. elegans (N2) complex I (NADH:ubiquinone oxidoreductase), sequence (Q93873 31-482): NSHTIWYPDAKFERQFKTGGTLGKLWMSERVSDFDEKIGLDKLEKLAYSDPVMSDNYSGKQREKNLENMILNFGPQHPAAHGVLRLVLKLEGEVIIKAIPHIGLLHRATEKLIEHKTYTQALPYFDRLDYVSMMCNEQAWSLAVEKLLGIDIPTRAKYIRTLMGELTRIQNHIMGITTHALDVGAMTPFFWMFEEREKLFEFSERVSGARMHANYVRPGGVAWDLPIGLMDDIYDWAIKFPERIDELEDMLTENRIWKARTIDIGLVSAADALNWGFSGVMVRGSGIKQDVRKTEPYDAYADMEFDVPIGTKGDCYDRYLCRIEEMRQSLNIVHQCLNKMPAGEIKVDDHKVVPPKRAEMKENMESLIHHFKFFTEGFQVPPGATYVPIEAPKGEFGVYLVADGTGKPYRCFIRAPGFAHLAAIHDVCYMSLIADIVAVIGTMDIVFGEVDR

Compound	activity at 0.0001 µM [1] [%]	activity at 0.0005 µM [1] [%]	activity at 0.001 µM [1] [%]	activity at 0.0025 µM [1] [%]	activity at 0.005 µM [1] [%]	activity at 0.013 µM [1] [%]	activity at 0.025 µM [1] [%]	activity at 0.063 µM [1] [%]	activity at 0.125 µM [1] [%]	activity at 0.313 µM [1] [%]	activity at 0.625 µM [1] [%]	activity at 1.5 µM [1] [%]	activity at 3 µM [1] [%]	activity at 15 µM [1] [%]	activity at 37.5 µM [1] [%]	activity at 75 µM [1] [%]	pIC50 [1, 4]	Log IC50 C. elegans complex I [1] [µM]	pIC50 [1, 5]	LC50 (L1 wild-type C. elegans [3]) [µM]	other results
CCCOc1ccc(Cn2cnc3ccccc32)cc1 [Compound 7355741]	85.2	94.7	89.8	99	86.1	94.6	90.6	82.3	77.2	62.4	47.9	31.8	15.1	3.6	5.38	7.89	6.21	-0.21	6.21	7	pIC50 [1, 6]: 6.21; Screen "Hit" (L1 wild-type C. elegans [2]; [7]): Y (hits were identified as compounds that reduced relative motility below 0.25 (75% reduction)); C. elegans KCN Survival (L1 wild-type C. elegans [2]; [8]): 0.923; C. elegans KCN Survival (L1 wild-type C. elegans [2]; Dose 0.39 µM): 0.831; C. elegans KCN Survival (L1 wild-type C. elegans [2]; Dose 1.56 µM): 0.783; C. elegans KCN Survival (L1 wild-type C. elegans [2]; Dose 3.13 µM): 1.007; C. elegans KCN Survival (L1 wild-type C. elegans [2]; Dose 6.25 µM): 0.620; C. elegans KCN Survival (L1 wild-type C. elegans [2]; Dose 12.5 µM): 0.122; C. elegans KCN Survival (L1 wild-type C. elegans [2]; Dose 25 µM): 0.000; C. elegans KCN Survival (L1 wild-type C. elegans [2]; Dose 50 µM): 0.000; C. elegans KCN Survival (L1 wild-type C. elegans [2]; Dose 100 µM): 0.000
Nc1nc2ccccc2n1Cc1ccc(Br)cc1 [Compound 7313068]																	6.47	-0.47	6.47	14.9	pIC50 [1, 6]: 6.47; Screen "Hit" (L1 wild-type C. elegans [2]; [7]): Y (hits were identified as compounds that reduced relative motility below 0.25 (75% reduction))
Nc1nc2ccccc2n1CCOc1ccc(Br)cc1 [Compound 5842535]	80	92.9	87.5	88.5	89.3	88.3	81.7	79.5	81.6	76.9	83.9	76.4	65	17.8	0.13	0	5.21	0.79		26.7	pIC50 [1, 9]: 5.21; Screen "Hit" (L1 wild-type C. elegans [2]; [10]): Y (hits were identified as compounds that reduced relative motility below 0.25 (75% reduction)); C. elegans KCN Survival (L1 wild-type C. elegans [2]; [8]): 1.013; C. elegans KCN Survival (L1 wild-type C. elegans [2]; Dose 0.39 µM): 1.010; C. elegans KCN Survival (L1 wild-type C. elegans [2]; Dose 1.56 µM): 1.035; C. elegans KCN Survival (L1 wild-type C. elegans [2]; Dose 3.13 µM): 1.110; C. elegans KCN Survival (L1 wild-type C. elegans [2]; Dose 6.25 µM): 1.056; C. elegans KCN Survival (L1 wild-type C. elegans [2]; Dose 12.5 µM): 0.989; C. elegans KCN Survival (L1 wild-type C. elegans [2]; Dose 25 µM): 0.572; C. elegans KCN Survival (L1 wild-type C. elegans [2]; Dose 50 µM): 0.188; C. elegans KCN Survival (L1 wild-type C. elegans [2]; Dose 100 µM): 0.200
Cc1ccc2nc(C(C)c3ccc(CC(C)C)cc3)[nH]c2c1 (centres unmarked) [STL482096]																	6.04	-0.04	6.04	6.76	pIC50 [1, 6]: 6.04; Screen "Hit" (L1 wild-type C. elegans [2]; [11]): Y (hits were identified as compounds that reduced relative motility below 0.25 (75% reduction))
Clc1ccc(OCCn2cnc3ccccc32)c(Cl)c1 [Compound 7221649]	92.4	97.1	98.6	106	107	101	101	94.8	93.4	89.3	84.8	71.9	58.5	22.2	11.4	6.54	5.38	0.62		13	pIC50 [1, 9]: 5.38; Screen "Hit" (L1 wild-type C. elegans [2]; [10]): Y (hits were identified as compounds that reduced relative motility below 0.25 (75% reduction)); C. elegans KCN Survival (L1 wild-type C. elegans [2]; [8]): 0.959; C. elegans KCN Survival (L1 wild-type C. elegans [2]; Dose 0.39 µM): 0.956; C. elegans KCN Survival (L1 wild-type C. elegans [2]; Dose 1.56 µM): 1.007; C. elegans KCN Survival (L1 wild-type C. elegans [2]; Dose 3.13 µM): 1.008; C. elegans KCN Survival (L1 wild-type C. elegans [2]; Dose 6.25 µM): 0.946; C. elegans KCN Survival (L1 wild-type C. elegans [2]; Dose 12.5 µM): 0.599; C. elegans KCN Survival (L1 wild-type C. elegans [2]; Dose 25 µM): 0.152; C. elegans KCN Survival (L1 wild-type C. elegans [2]; Dose 50 µM): 0.156; C. elegans KCN Survival (L1 wild-type C. elegans [2]; Dose 100 µM): 0.254
CC(C)Cc1ccc(C(C)c2nc3ccccc3n2C(C)C)cc1 (centres unmarked) [STK951903]																	5.38	0.62	5.38	25.1	pIC50 [1, 9]: 5.38; Screen "Hit" (L1 wild-type C. elegans [2]; [11]): Y (hits were identified as compounds that reduced relative motility below 0.25 (75% reduction))
Cc1ccc(CSCc2nc3ccccc3[nH]2)cc1 [Compound 7121781]	100	95.4	94.3	98	98.1	104	99.3	89.7	95.8	87.2	99.9	94	73.4	71.1	43.5	23.3	4.54	1.46		9.79	pIC50 [1, 9]: 4.54; Screen "Hit" (L1 wild-type C. elegans [2]; [10]): Y (hits were identified as compounds that reduced relative motility below 0.25 (75% reduction)); Relative Motility (L1 wild-type C. elegans [2]; 50 μM, […], worm motility 3 hours after removal of KCN, relative to DMSO controls, single biological replicate): 0.077; C. elegans KCN Survival (L1 wild-type C. elegans [2]; [8]): 1.008; C. elegans KCN Survival (L1 wild-type C. elegans [2]; Dose 0.39 µM): 0.850; C. elegans KCN Survival (L1 wild-type C. elegans [2]; Dose 1.56 µM): 0.802; C. elegans KCN Survival (L1 wild-type C. elegans [2]; Dose 3.13 µM): 0.857; C. elegans KCN Survival (L1 wild-type C. elegans [2]; Dose 6.25 µM): 0.615; C. elegans KCN Survival (L1 wild-type C. elegans [2]; Dose 12.5 µM): 0.348; C. elegans KCN Survival (L1 wild-type C. elegans [2]; Dose 25 µM): 0.053; C. elegans KCN Survival (L1 wild-type C. elegans [2]; Dose 50 µM): 0.003; C. elegans KCN Survival (L1 wild-type C. elegans [2]; Dose 100 µM): 0.000
Cc1ccc(Cn2c(C)nc3ccccc32)cc1 [Compound 5651984]																	6.74	-0.74	6.74	7.24	pIC50 [1, 6]: 6.74; Screen "Hit" (L1 wild-type C. elegans [2]; [7]): Y (hits were identified as compounds that reduced relative motility below 0.25 (75% reduction))
